Laboratory results from ChEMBL document CHEMBL6087423, “Grafting a chromophore on AMD070 analogues for CXCR4 bioimaging: Chemical synthesis and in vitro assessment of the inhibition properties of the CXCR4 receptor” (Bioorg Med Chem Lett, 2025).
pIC50: −log10 of the molar value. Each block holds one compound with its values, some of them ahead of it.

How the values were obtained:
[1] = target: T1, C-X-C chemokine receptor type 4 (Homo sapiens, UniProt P61073); experiment: Binding affinity to CXCR4 (unknown origin)
[2] = system: Human immunodeficiency virus 1; experiment: Anti-HIV activity against HIV-1 IIIB infected in MT-4 cells; type: functional, organism-based; details: Human immunodeficiency virus 1, IIIB, MT4
[3] = system: Human immunodeficiency virus 2; experiment: Anti-HIV activity against HIV-2 ROD infected in MT-4 cells; type: functional, organism-based; details: Human immunodeficiency virus 2, ROD, MT4
[4] = target: T1, C-X-C chemokine receptor type 4; experiment: Inhibition of 12G5-PE binding to CXCR4 in human U266B1 cells assessed as cell viability incubated for 1 hr by DAPI staining based flow cytometric analysis

T1 sequence (P61073 whole entry): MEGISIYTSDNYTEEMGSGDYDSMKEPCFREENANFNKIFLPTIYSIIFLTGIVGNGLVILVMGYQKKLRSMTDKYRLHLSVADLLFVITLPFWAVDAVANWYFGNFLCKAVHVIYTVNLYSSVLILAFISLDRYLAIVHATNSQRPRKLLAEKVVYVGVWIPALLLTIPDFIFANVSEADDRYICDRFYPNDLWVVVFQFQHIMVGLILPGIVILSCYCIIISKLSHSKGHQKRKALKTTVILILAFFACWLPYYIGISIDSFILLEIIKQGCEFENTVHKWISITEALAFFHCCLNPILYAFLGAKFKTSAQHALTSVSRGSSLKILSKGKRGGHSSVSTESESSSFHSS

- pIC50 [1]: 8.00
Compound: NCc1cc(C(N)=O)ccc1CN(Cc1nc2ccccc2[nH]1)C1CCCc2cccnc21 (stereo not given)

- pIC50 [2]: 7.00
- pIC50 [3]: 7.00
Compound: C1CNCCNCCCNC(C2CNCCCNCCNCCCN2)CNC1 (stereo not given)

Compound: O=C1OC2(c3ccc(O)cc3Oc3cc(O)ccc32)c2ccc(NC(=S)NCCCCN(Cc3nc4ccccc4[nH]3)C3CCCc4cccnc43)cc21 (stereo not given)
- pIC50 [4]: 5.25

- pIC50 [1]: 8.00
Compound: COC(=O)C(=O)c1ccc(CN(Cc2nc3ccccc3[nH]2)C2CCCc3cccnc32)c(CN)c1 (stereo not given)
